Laboratory results: the supplement of paper PMC10307832

Assays:
Assay in all cases: relative viability (nuclei count vs DMSO), 5 days (fraction); higher = more cells survive
HCC-78 = system: HCC-78
Procedure, shortened: (§1)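 Values are medians from duplicate plates. Each reflects relative viability, defined as the nuclei count of treated wells over that of vehicle wells. Lung cancer cell lines in 1536-well plates were pin-tool dosed one day after seeding with one drug alone or with a fixed anchor-drug dose plus five library-drug doses (not always all listed) in √10 steps, then fixed, stained and imaged at 4× after 5 days.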

NCI-H1623 = system: NCI-H1623
Procedure, shortened: as §1

NCI-H1648 = system: NCI-H1648
Procedure, shortened: as §1

NCI-H2009 = system: NCI-H2009
Procedure, shortened: as §1

NCI-H2342 = system: NCI-H2342
Procedure, shortened: as §1

NCI-H358 = system: NCI-H358
Procedure, shortened: as §1

NCI-H460 = system: NCI-H460
Procedure, shortened: as §1

NCI-H522 = system: NCI-H522
Procedure, shortened: as §1

NCI-H661 = system: NCI-H661
Procedure, shortened: as §1

Cc1sc2c(c1C)C(c1ccc(Cl)cc1)=N[C@@H](CC(=O)OC(C)(C)C)c1nnc(C)n1-2 [JQ1] + COc1cccc2cc(-c3nc([C@H]4CC[C@H](C(=O)O)CC4)n4ncnc(N)c34)[nH]c12 [OSI-027] (partner 0.5 µM)
relative viability (HCC-78; first compound 0.04 µM): 0.389
relative viability (HCC-78; first compound 0.1265 µM): 0.47
relative viability (HCC-78; first compound 0.4 µM): 0.387
relative viability (HCC-78; first compound 1.265 µM): 0.335
relative viability (HCC-78; first compound 4 µM): 0.296
relative viability (NCI-H1623; first compound 0.04 µM): 0.446
relative viability (NCI-H1623; first compound 0.1265 µM): 0.433
relative viability (NCI-H1623; first compound 0.4 µM): 0.363
relative viability (NCI-H1623; first compound 1.265 µM): 0.328
relative viability (NCI-H1623; first compound 4 µM): 0.291
relative viability (NCI-H1648; first compound 0.04 µM): 0.285
relative viability (NCI-H1648; first compound 0.1265 µM): 0.287
relative viability (NCI-H1648; first compound 0.4 µM): 0.304
relative viability (NCI-H1648; first compound 1.265 µM): 0.206
relative viability (NCI-H1648; first compound 4 µM): 0.274
relative viability (NCI-H2009; first compound 0.04 µM): 0.558
relative viability (NCI-H2009; first compound 0.1265 µM): 0.471
relative viability (NCI-H2009; first compound 0.4 µM): 0.318
relative viability (NCI-H2009; first compound 1.265 µM): 0.185
relative viability (NCI-H2009; first compound 4 µM): 0.179
relative viability (NCI-H2342; first compound 0.04 µM): 0.695
relative viability (NCI-H2342; first compound 0.1265 µM): 0.605
relative viability (NCI-H2342; first compound 0.4 µM): 0.702
relative viability (NCI-H2342; first compound 1.265 µM): 0.681
relative viability (NCI-H2342; first compound 4 µM): 0.52
relative viability (NCI-H358; first compound 0.04 µM): 0.705
relative viability (NCI-H358; first compound 0.1265 µM): 0.796
relative viability (NCI-H358; first compound 0.4 µM): 0.748
relative viability (NCI-H358; first compound 1.265 µM): 0.47
relative viability (NCI-H358; first compound 4 µM): 0.461
relative viability (NCI-H460; first compound 0.04 µM): 0.594
relative viability (NCI-H460; first compound 0.1265 µM): 0.366
relative viability (NCI-H460; first compound 0.4 µM): 0.259
relative viability (NCI-H460; first compound 1.265 µM): 0.0873
relative viability (NCI-H460; first compound 4 µM): 0.0909
relative viability (NCI-H522; first compound 0.04 µM): 0.657
relative viability (NCI-H522; first compound 0.1265 µM): 0.556
relative viability (NCI-H522; first compound 0.4 µM): 0.617
relative viability (NCI-H522; first compound 4 µM): 0.468
relative viability (NCI-H661; first compound 0.04 µM): 0.714
relative viability (NCI-H661; first compound 0.1265 µM): 0.517
relative viability (NCI-H661; first compound 0.4 µM): 0.603
relative viability (NCI-H661; first compound 1.265 µM): 0.423
relative viability (NCI-H661; first compound 4 µM): 0.453

COc1cc2nccc(Oc3ccc(NC(=O)Nc4cc(C)on4)c(Cl)c3)c2cc1OC [Tivozanib] + COc1cccc2cc(-c3nc([C@H]4CC[C@H](C(=O)O)CC4)n4ncnc(N)c34)[nH]c12 [OSI-027] (partner 0.5 µM)
relative viability (HCC-78; first compound 0.005 µM): 0.326
relative viability (HCC-78; first compound 0.01581 µM): 0.369
relative viability (HCC-78; first compound 0.05 µM): 0.386
relative viability (HCC-78; first compound 0.1581 µM): 0.31
relative viability (HCC-78; first compound 0.5 µM): 0.316
relative viability (NCI-H1623; first compound 0.005 µM): 0.414
relative viability (NCI-H1623; first compound 0.01581 µM): 0.445
relative viability (NCI-H1623; first compound 0.05 µM): 0.431
relative viability (NCI-H1623; first compound 0.1581 µM): 0.407
relative viability (NCI-H1623; first compound 0.5 µM): 0.459
relative viability (NCI-H1648; first compound 0.005 µM): 0.255
relative viability (NCI-H1648; first compound 0.01581 µM): 0.25
relative viability (NCI-H1648; first compound 0.05 µM): 0.221
relative viability (NCI-H1648; first compound 0.1581 µM): 0.218
relative viability (NCI-H1648; first compound 0.5 µM): 0.258
relative viability (NCI-H2009; first compound 0.005 µM): 0.605
relative viability (NCI-H2009; first compound 0.01581 µM): 0.689
relative viability (NCI-H2009; first compound 0.05 µM): 0.65
relative viability (NCI-H2009; first compound 0.1581 µM): 0.374
relative viability (NCI-H2009; first compound 0.5 µM): 0.386
relative viability (NCI-H2342; first compound 0.005 µM): 0.67
relative viability (NCI-H2342; first compound 0.01581 µM): 0.556
relative viability (NCI-H2342; first compound 0.05 µM): 0.644
relative viability (NCI-H2342; first compound 0.5 µM): 0.562
relative viability (NCI-H358; first compound 0.005 µM): 0.751
relative viability (NCI-H358; first compound 0.01581 µM): 0.776
relative viability (NCI-H358; first compound 0.05 µM): 0.674
relative viability (NCI-H358; first compound 0.1581 µM): 0.332
relative viability (NCI-H358; first compound 0.5 µM): 0.727
relative viability (NCI-H460; first compound 0.005 µM): 0.626
relative viability (NCI-H460; first compound 0.01581 µM): 0.692
relative viability (NCI-H460; first compound 0.05 µM): 0.727
relative viability (NCI-H460; first compound 0.1581 µM): 0.622
relative viability (NCI-H460; first compound 0.5 µM): 0.578
relative viability (NCI-H522; first compound 0.005 µM): 0.722
relative viability (NCI-H522; first compound 0.01581 µM): 0.788
relative viability (NCI-H522; first compound 0.05 µM): 0.783
relative viability (NCI-H522; first compound 0.1581 µM): 0.677
relative viability (NCI-H522; first compound 0.5 µM): 0.604
relative viability (NCI-H661; first compound 0.005 µM): 0.672
relative viability (NCI-H661; first compound 0.01581 µM): 0.73
relative viability (NCI-H661; first compound 0.05 µM): 0.724
relative viability (NCI-H661; first compound 0.1581 µM): 0.646
relative viability (NCI-H661; first compound 0.5 µM): 0.688

Nc1ccn([C@@H]2O[C@H](CO)[C@@H](O)[C@@H]2O)c(=O)n1 [Cytarabine] + COc1cccc2cc(-c3nc([C@H]4CC[C@H](C(=O)O)CC4)n4ncnc(N)c34)[nH]c12 [OSI-027] (partner 0.5 µM)
relative viability (HCC-78; first compound 0.005 µM): 0.368
relative viability (HCC-78; first compound 0.01581 µM): 0.349
relative viability (HCC-78; first compound 0.05 µM): 0.314
relative viability (HCC-78; first compound 0.1581 µM): 0.242
relative viability (HCC-78; first compound 0.5 µM): 0.258
relative viability (NCI-H1623; first compound 0.005 µM): 0.372
relative viability (NCI-H1623; first compound 0.01581 µM): 0.376
relative viability (NCI-H1623; first compound 0.05 µM): 0.277
relative viability (NCI-H1623; first compound 0.1581 µM): 0.258
relative viability (NCI-H1623; first compound 0.5 µM): 0.243
relative viability (NCI-H1648; first compound 0.005 µM): 0.238
relative viability (NCI-H1648; first compound 0.01581 µM): 0.266
relative viability (NCI-H1648; first compound 0.05 µM): 0.246
relative viability (NCI-H1648; first compound 0.1581 µM): 0.214
relative viability (NCI-H1648; first compound 0.5 µM): 0.263
relative viability (NCI-H2009; first compound 0.005 µM): 0.656
relative viability (NCI-H2009; first compound 0.01581 µM): 0.642
relative viability (NCI-H2009; first compound 0.05 µM): 0.621
relative viability (NCI-H2009; first compound 0.1581 µM): 0.454
relative viability (NCI-H2009; first compound 0.5 µM): 0.29
relative viability (NCI-H2342; first compound 0.005 µM): 0.511
relative viability (NCI-H2342; first compound 0.01581 µM): 0.591
relative viability (NCI-H2342; first compound 0.05 µM): 0.511
relative viability (NCI-H2342; first compound 0.1581 µM): 0.549
relative viability (NCI-H2342; first compound 0.5 µM): 0.459
relative viability (NCI-H358; first compound 0.005 µM): 0.608
relative viability (NCI-H358; first compound 0.01581 µM): 0.631
relative viability (NCI-H358; first compound 0.05 µM): 0.35
relative viability (NCI-H358; first compound 0.1581 µM): 0.104
relative viability (NCI-H358; first compound 0.5 µM): 0.091
relative viability (NCI-H460; first compound 0.005 µM): 0.384
relative viability (NCI-H460; first compound 0.01581 µM): 0.486
relative viability (NCI-H460; first compound 0.05 µM): 0.301
relative viability (NCI-H460; first compound 0.1581 µM): 0.055
relative viability (NCI-H460; first compound 0.5 µM): 0.0359
relative viability (NCI-H522; first compound 0.005 µM): 0.717
relative viability (NCI-H522; first compound 0.01581 µM): 0.599
relative viability (NCI-H522; first compound 0.05 µM): 0.395
relative viability (NCI-H522; first compound 0.1581 µM): 0.48
relative viability (NCI-H522; first compound 0.5 µM): 0.539
relative viability (NCI-H661; first compound 0.005 µM): 0.559
relative viability (NCI-H661; first compound 0.01581 µM): 0.617
relative viability (NCI-H661; first compound 0.05 µM): 0.545
relative viability (NCI-H661; first compound 0.1581 µM): 0.413
relative viability (NCI-H661; first compound 0.5 µM): 0.363
